# Measurements reported in patent EP4663191A1, “USE OF TYROSINE KINASE INHIBITOR” (Qilu Animal Health Products Co., Ltd., priority 2023, dated 2024).
# Several values for one entry are separate records, joined by “and”; a condition that tells them apart may be missing. Identical values can stand only once.
# Columns and labels:
# [1] = system: mouse mast cell tumor P815 cells; assay: In vivo efficacy in DBA/2 mouse model of subcutaneous homologous transplantation of P815 cells; conditions: for Tumor volume (mm^3): average ±SEM; for TGI: Day 8, vs vehicle control
# Source text: Test sample: the dimaleate of the compound of formula (I) of the present application (content: 99.7%), and Toceranib phosphate (content: 98.2%, commercially available), the concentration and dosage of administration of the test sample prepared in the following implementation are all calculated in terms of free alkali.
# Test animal: the species is mouse; the strain is DBA/2 mouse; the age is 6-8 weeks old, and the weight is 19-24 g; and the gender is female.
# Experimental methods and steps: mouse mast cell tumor P815 cells (ATCC-TIB-64) were adherent and cultured in vitro. The culture conditions were DMEM medium, 10 vol% fetal bovine serum, 1 vol% double antibody, and cultured in a cell incubator at 37 °C with 5% CO2. Conventional digestion treatment and passage were carried out twice a week with trypsin-EDTA. When the cell saturation reached 80-90% and the quantity satisfied the requirements, the cells were collected, counted and inoculated.
# 0.1 mL of PBS containing 5×10^5 P815 cells was subcutaneously inoculated into the subcutaneous area of the right forelimb axilla of each mouse. At day 8 after cell inoculation, when the average tumor volume reached 100 mm^3, group administration was started. The experiment was grouped into a negative control group (without an active ingredient), an administration group, and a positive control group (with the active ingredient Toceranib), with 8 mice in each group. The negative control (vehicle), the dimaleate of the compound of formula (I), and Toceranib phosphate were administered orally once daily for an 8-day administration period. Health status and mortality of animals were monitored every day. Routine examinations included observing the effects of tumor growth and drug treatment on daily behavioral performance of animals, such as behavioral activities, food and water intake (only visually), weight changes (measuring weight twice a week), appearance signs or other abnormal conditions. Table 1. Preparation methods of the test samples
# Table 2. Grouping of experimental animals and administration protocols
# The experimental indicators were to examine whether the tumor growth was inhibited, delayed or cured. The diameter of the tumor was measured with a vernier caliper. The calculation formula for tumor volume was: V = 0.5a × b^2 , [formula] wherein a and b represented the long diameter and the short diameter of the tumor, respectively. The anti-tumor efficacy of the compound was determined by TGI (%). TGI (%) reflects the rate of tumor growth inhibition. Calculation of TGI (%): TGI (%) = [1-(Average tumor volume at the end of administration in a certain treatment group - Average tumor volume at the start of administration in this treatment group) / (Average tumor volume at the end of treatment in the vehicle control group - Average tumor volume at the start of treatment in the vehicle control group)] ×100%.
# [2] = system: mouse mast cell tumor cells P815 cells (ATCC-TIB-64); assay: MTT assay (thiazolyl blue colorimetric assay), inhibition of tumor cell proliferation; type: cell-based
# Experimental: Test sample: the dimaleate of the compound of formula (I) of the present application.
# The inhibition effect of the dimaleate of the compound of formula (I) on the growth of mouse mast cell tumor cells P815 cells (ATCC-TIB-64) was detected by MTT assay (thiazolyl blue colorimetric assay), and IC50 (half inhibitory concentration) was calculated and obtained.
# canine mast cell tumor = assay: Anti-tumor effect in dogs with mast cell tumors (clinical cases); type: in vivo
# Experimental: (§1) Since May 2021, a total of 14 dogs with mast cell tumors have been collected and enrolled for treatment with a dimaleate of the compound of formula (I). Table 4: Clinical staging criteria for canine cutaneous mast cell tumors
# (§2) The affected dogs with mast cell tumor were administered with the drug of the dimaleate of the compound of formula (I) at a dose of 2.0 mg/kg to 3.25 mg/kg (all doses were calculated based on free base, the same below), orally once every other day. For affected dogs with assessable solid tumors, baseline assessment was performed before the first trial medication. After the administration of the first trial medication, mass measurement and blood routine examination were performed every 2 weeks, and blood biochemical examination and imaging examination were performed every 4 weeks to evaluate the response to tumor treatment until disease progression, intolerable drug withdrawal due to treatment-related side effects, or death of enrolled dogs, and to evaluate the efficacy and safety of the compound of formula (I) in the treatment of a canine mast cell tumor and a breast tumor. The primary observation endpoints: objective response rate (ORR), disease control rate (DCR), progression-free survival (PFS), and overall survival (OS); complete response (CR), partial response (PR), stable disease (SD), and progressive disease (PD).
# [3] = Adverse reactions and safety in dogs with mast cell tumors under treatment (VCOG-CTCAE); type: in vivo
# Experimental: as §1, §2
# (Adverse event assessment criteria refer to VCOG-CTCAE (Veterinary cooperative oncology group-common terminology criteria for adverse events (VCOG-CTCAE) following chemotherapy or biological antineoplastic therapy in dogs and cats v1.1. Vet Comp Oncol. 2016)).
# [4] = 14 dogs, 2.0 mg/kg to 3.25 mg/kg orally once every other day, n=4
compound,measurement,setting,value
"Cc1[nH]c(/C=C2\C(=O)Nc3ccc(F)cc32)c(C)c1C(=O)NCCN1CCCC1 [Toceranib, reference compound]",Tumor volume (mm^3),"[1]; Day 0 after administration, 40mg/kg PO QD",100±4 mm^3
same,Tumor volume (mm^3),"[1]; Day 2 after administration, 40mg/kg PO QD",127±6 mm^3
same,Tumor volume (mm^3),"[1]; Day 4 after administration, 40mg/kg PO QD",231±14 mm^3
same,Tumor volume (mm^3),"[1]; Day 6 after administration, 40mg/kg PO QD",299±15 mm^3
same,TGI,"[1]; 40 mg/kg PO QD, p < 0.001",43.38%
same,Tumor volume (mm^3),"[1]; Day 8 after administration, 40mg/kg PO QD, 40 mg/kg",510 mm^3 and 510±38 mm^3
"Cc1[nH]c(/C=C2\C(=O)Nc3ccc(F)cc32)c(C)c1NC(=O)CCN1CCN(C)CC1 [dimaleate of the compound of formula (I), N-(5-((Z)-(5-fluoro-2-carbonylindole-3-ylidene)methyl)-2,4-dimethyl-1H-pyrrol-3-yl)-3-(4-methylpiperazin-1-yl) propanamide]",IC50,[2],474 nM
same,Tumor volume (mm^3),"[1]; Day 0 after administration, 20mg/kg PO QD",100±4 mm^3
same,Tumor volume (mm^3),"[1]; Day 2 after administration, 20mg/kg PO QD",141±22 mm^3
same,Tumor volume (mm^3),"[1]; Day 4 after administration, 20mg/kg PO QD",244±35 mm^3
same,Tumor volume (mm^3),"[1]; Day 6 after administration, 20mg/kg PO QD",319±55 mm^3
same,TGI,"[1]; 20 mg/kg PO QD, p = 0.003",47.25%
same,Tumor volume (mm^3),"[1]; Day 8 after administration, 20mg/kg PO QD, listed as Compound of formula (I), 20 mg/kg",483 ±93 mm^3
same,Tumor volume (mm^3),"[1]; Day 8 after administration, 20mg/kg PO QD, listed as compound of formula (I), 20 mg/kg",483 mm^3
same,mass decreased compared with the baseline,"canine mast cell tumor; Case 1 Golden Retriever, 3.07 mg/kg, 14 days (October 17)",12%
same,recurrence of the mass,"canine mast cell tumor; Case 1 Golden Retriever, after excision, 2.63 mg/kg, postoperative days 47, 82, 117 and 145",no recurrence of the mass was seen on the skin
same,survival period,"canine mast cell tumor; Case 1 Golden Retriever, as of March 28, 2022, 66 doses",greater than 176 days
same,total survival period,"canine mast cell tumor; Case 2 Tibetan mastiff, 2.84 mg/kg, died September 18, 2021",117 days
same,mass on the cephalic side of the vulva,"canine mast cell tumor; Case 3 Labrador, 2.42 mg/kg, after 14 days, non-target lesion",significantly reduced
same,survival period,"canine mast cell tumor; Case 3 Labrador, as of April 17, 2022, medication 51 times",greater than 126 days
same,enlargement of the mass on the cephalic side of the vulva,"canine mast cell tumor; Case 3 Labrador, day 42 and day 77 of treatment, non-target lesion",No enlargement
same,survival period,"canine mast cell tumor; Case 4 Golden Retriever, 2.3-2.4 mg/kg, still under therapy",greater than 259 days
same,Nasal ultrasound,"canine mast cell tumor; Case 4 Golden Retriever, re-examined August 7",subcutaneous mass accompanied by invasive changes in adjacent turbinate bone
same,Nasal ultrasound,"canine mast cell tumor; Case 4 Golden Retriever, re-examined June 6",subcutaneous mass is suspected of invading the nasal cavity
same,blood in urine (treatment-related clinical adverse reaction),"[3]; 14 dogs, 2.0 mg/kg to 3.25 mg/kg orally once every other day, n=1, occasionally",7.1%
same,vomiting (treatment-related clinical adverse reaction),"[3]; 14 dogs, 2.0 mg/kg to 3.25 mg/kg orally once every other day, n=3",21.4%
same,blood in stool (treatment-related clinical adverse reaction),[3]; [4],28.6%
same,decreased appetite (treatment-related clinical adverse reaction),[3]; [4],28.6%
same,diarrhea (treatment-related clinical adverse reaction),"[3]; 14 dogs, 2.0 mg/kg to 3.25 mg/kg orally once every other day, n=9",64.3%
same,grade 3 or 4 adverse reactions,"[3]; 14 dogs, VCOG-CTCAE v1.1",No grade 3 or 4 adverse reactions were observed
same,blood routine and serum biochemistry,"[3]; Case 2 Tibetan mastiff, 2.84 mg/kg, June 21",no obvious abnormality was seen compared with the baseline
same,adverse effects after administration,"[3]; Case 4 Golden Retriever, stage I, no c-kit mutation, 2.4 mg/kg from January 2",no significant adverse effects were observed
same,adverse reactions after medication,"[3]; Case 4 Golden Retriever, 2.3 mg/kg from April 10 and from June 6",no obvious adverse reactions occurred after medication
same,adverse reactions after taking the medicine,"[3]; Case 4 Golden Retriever, continued at 2.4mg/kg from February 13",symptoms of soft stool and diarrhea occurred
same,blood routine and serum biochemistry,"[3]; Case 4 Golden Retriever, re-examined February 13, April 10, June 6 (August 7: blood routine only)",no obvious abnormalities were found
same,adverse reactions after medication,"[3]; Case 5 Golden Retriever, 2.25 mg/kg from October 15",no obvious adverse reactions occurred after medication
same,adverse reactions during treatment,"[3]; Case 5 Golden Retriever, 2.75 mg/kg, reported at October 15",Thin and watery stools occurred during a period
same,adverse reactions after dosing,"[3]; Case 5 Golden Retriever, 3.25 mg/kg from September 3",soft stools appeared once after dosing
same,adverse reactions after dosing,"[3]; Case 5 Golden Retriever, dosage adjusted to 2.75 mg/kg on September 7",no significant adverse reactions after dosing
